In patent US10292382B2, “No-spin cryopreservation technique and resulting products” (Biopredic International, priority 2014, dated 2019):

Experiments:
cells = settings: above 4° C.; cited from earlier work

Description for Fresh human hepatocytes: In this Example, testing was carried out to determine the effect of different concentrations of DMSO (0 to 2%) on the cell plateability/attachment using the inventive, direct NS plating method.
Fresh human hepatocytes having 78% viability, corresponding generally to customary thawed cell viability, were plated with DMSO in concentrations ranging from 0 to 2%. The cells were plated without Percoll density gradient centrifugation for both classical and NS methods. The cell seeding density was 0.37 million cells/well (MW24 plate) for both classical & NS methods. The cells were evaluated for cell morphology, plateability, and metabolic activity.
The DMSO, as a cryoprotectant included in freezing medium, has been tested at final concentrations up to 2% in the cell plating medium.

SMILES: C[S+](C)[O-] [DMSO, dimethyl sulfoxide]
- DMSO concentration demonstrated to be toxic (cells): up to 2%
- maximum tolerated DMSO percentage in hepatocyte-NS plating medium for cell attachment (Fresh human hepatocytes): less than 1 % (v/v)
